Laboratory results from patent US12410171B2, “Tropomyosin receptor kinase (TRK) degradation compounds and methods of use” (Cullgen (Shanghai), Inc., priority 2020, dated 2025).

Target: T1, TPM3-TRKA fusion protein (Homo sapiens, UniProt P04629)
T1 construct: The resulted chimeric proteins always retain the kinase domain of TRK proteins; TPM3 (fusion partner, N-terminal part of tropomyosin alpha-3, P06753); endogenous in cells; host or cells: KM12 colon cancer cells; the other entry of the earlier key: TPM3 (P06753, Tropomyosin alpha-3 chain)
T1 sequence (P04629 with tags, fused parts or gaps): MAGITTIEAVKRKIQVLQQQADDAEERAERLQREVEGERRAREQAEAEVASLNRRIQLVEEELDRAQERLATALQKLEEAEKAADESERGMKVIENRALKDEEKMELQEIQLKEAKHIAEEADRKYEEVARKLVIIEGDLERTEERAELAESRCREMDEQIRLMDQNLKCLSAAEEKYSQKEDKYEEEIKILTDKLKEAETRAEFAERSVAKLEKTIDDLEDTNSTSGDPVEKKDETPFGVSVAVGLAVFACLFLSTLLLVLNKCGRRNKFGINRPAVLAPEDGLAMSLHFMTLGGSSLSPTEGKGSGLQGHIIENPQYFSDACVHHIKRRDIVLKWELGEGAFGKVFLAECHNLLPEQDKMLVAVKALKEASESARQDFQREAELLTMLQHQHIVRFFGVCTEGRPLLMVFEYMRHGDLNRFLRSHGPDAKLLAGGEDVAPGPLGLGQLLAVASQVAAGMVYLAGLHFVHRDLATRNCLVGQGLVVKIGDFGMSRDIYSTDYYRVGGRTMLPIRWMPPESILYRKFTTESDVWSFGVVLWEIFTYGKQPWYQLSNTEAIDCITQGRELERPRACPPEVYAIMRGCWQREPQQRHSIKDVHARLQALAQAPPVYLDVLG
Assay: TPM3-TRKA fusion protein levels in KM12 cells (Western blot)
Format: cell-based
Conditions: for percent degradation of TPM3-TRKA protein at 0.01 µM: 16 h, TPM3-TRKA degradation in KM12 cells at 10 nM compound, category of percentage degradation, read-out: Degradation (at 10 nM)
Procedure: KM12 cells were treated with DMSO or indicated compounds at 100 nM for 16 hours.
KM12 cells were treated with DMSO or indicated compounds at 0. 1 nM, 1 nM or 10 nM for 16 hours.
KM12 cells were treated with DMSO or indicated compounds at various concentrations for 16 hours.
KM12 cells were treated with DMSO or indicated compounds at various concentrations for 4 hours.
KM12 cells (a cancer model comprising a colon cancer cell line) were treated with DMSO or indicated compounds at various concentrations for 4 hours.
KM12 cells were treated with heterobifunctional compounds or their corresponding control compounds at 10 nM or 100 nM for 16 hours.
KM12 cells were treated with heterobifunctional compounds or their corresponding control compounds at 0.4-30 nM for 8-16 hours. […] Cells were authenticated using the short tandem repeat (STR) assays. […] Stable cell lines were established by lentivirus transduction, selected and maintained in medium containing 1 μg/mL puromycin (Beyotime Biotechnology).
Cultured cells were washed with cold PBS once and lysed in cold RIPA buffer supplemented with protease inhibitors and phosphatase inhibitors (Beyotime Biotechnology). The solutions were then incubated at 4° C. for 30 minutes with gentle agitation to fully lyse cells. For tumor tissues, tumors were cut into small pieces, milled with cold RIPA buffer using a mechanical homogenizer and lysed for 1 hour at 4° C. Cell lysates were centrifuged at 13,000 rpm for 10 minutes at 4° C. and pellets were discarded. Total protein concentrations in the lysates were determined by BCA assays (Beyotime Biotechnology). Cell lysates were mixed with Laemmli loading buffer to 1× and heated at 99° C. for 5 min. Proteins were resolved on SDS-PAGE and visualized by chemiluminescence. Images were taken by a ChemiDoc MP Imaging system (Bio-Rad). Protein bands were quantitated using the software provided by Bio-Rad.

| SMILES | percent degradation of TPM3-TRKA protein at 0.01 µM [%] | TPM3-TRKA protein levels (KM12 cells, 100 nM, indicated incubation time, Western blot (FIG. 2)) |
| --- | --- | --- |
| O=C1CCC(N2C(=O)c3cccc(NCC(=O)N4CCN(c5cccc(-c6cnc7ccc(N8CCC[C@@H]8c8cccc(F)c8)nn67)n5)CC4)c3C2=O)C(=O)N1 (stereo partly drawn) [CPD-023, 2-(2,6-Dioxopiperidin-3-yl)-4-((2˜ (4-(6-(6-((R)-2-(3-fluorophenyl)pyrrolidin-1-yl)imidazo[1,2-b]pyridazin-3-yl)pyridin-2-yl)piperazin-1-yl)-2-oxoethyl)amino) isoindoline-1,3-dione] | > 80 |  |
| O=C1CCC(N2C(=O)c3cccc(NCCCCCCCC(=O)N4CCN(c5cccc(-c6cnc7ccc(N8CCC[C@@H]8c8cccc(F)c8)nn67)n5)CC4)c3C2=O)C(=O)N1 (stereo partly drawn) [CPD-024, 2-(2,6-Dioxopiperidin-3-yl)-4-((8-(4-(6-(6-((R)-2-(3-fluorophenyl)pyrrolidin-1-yl)imidazo[1,2-b]pyridazin-3-yl)pyridin-2-yl)piperazin-1-yl)-8-oxooctyl)amino) isoindoline-1,3-dione] | > 80 |  |
| O=C1CCC(N2C(=O)c3cccc(NCCOCCC(=O)N4CCN(c5cccc(-c6cnc7ccc(N8CCC[C@@H]8c8cccc(F)c8)nn67)n5)CC4)c3C2=O)C(=O)N1 (stereo partly drawn) [CPD-027, 2-(2,6-Dioxopiperidin-3-yl)-4˜ ((2-(3-(4˜ (6-(6-((R)-2-(3-fluorophenyl)pyrrolidin-1-yl)imidazo[1,2-b]pyridazin-3-yl)pyridin-2-yl)piperazin-1-yl)-3-oxopropoxy)ethyl)amino) isoindoline-1,3-dione] | > 80 | rapidly reduced TPM3-TRKA protein levels |
| Cc1ncsc1-c1ccc(CNC(=O)[C@@H]2C[C@@H](O)CN2C(=O)[C@@H](NC(=O)CCCCCCC(=O)N2CCN(c3cccc(-c4cnc5ccc(N6CCC[C@@H]6c6cccc(F)c6)nn45)n3)CC2)C(C)(C)C)cc1 [CPD-029, (25,4R)-1-((S)-2-(8-(4-(6-(6-((R)-2-(3-Fluorophenyl)pyrrolidin-1-yl)imidazo[1,2-b]pyridazin-3-yl)pyridin-2-yl)piperazin-1-yl)-8-oxooctanamido)-3,3-dimethylbutanoyl)-4-hydroxy-N-(4-(4-methylthiazol-5-yl)benzyl)pyrrolidine-2-carboxamide] | 50 to 80 |  |
| O=C1CCC(N2C(=O)c3cccc(NCCOCCC(=O)N4CCN(c5ccc(C(=O)Nc6n[nH]c7ccc(Cc8cc(F)cc(F)c8)cc67)c(NC6CCOCC6)c5)CC4)c3C2=O)C(=O)N1 (centres unmarked) [CPD-030, N-(5-(3,5-Difluorobenzyl)-1H-indazol-3-yl)-4-(4-(3-(2-((2-(2,6-dioxopiperidin-3-yl)-1,3-dioxoisoindolin-4-yl)amino)ethoxy)propanoyl)piperazin-1-yl)-2-((tetrahydro-2H-pyran-4-yl)amino)benzamide] | > 80 |  |
| O=C1CCC(N2C(=O)c3cccc(NCCOCCOCCC(=O)N4CCN(c5ccc(C(=O)Nc6n[nH]c7ccc(Cc8cc(F)cc(F)c8)cc67)c(NC6CCOCC6)c5)CC4)c3C2=O)C(=O)N1 (stereo not drawn) [CPD-032, N—(S-(3,5-Difluorobenzyl)-1H-indazol-3-yl)-4-(4-(3-(2-(2-((2-(2,6-dioxopiperidin-3-yl)-1,3-dioxoisoindolin-4-yl)amino)ethoxy)ethoxy)propanoyl)piperazin-1-yl)-2-((tetrahydro-2H-pyran-4-yl)amino)benzamide] | > 80 |  |
| Cc1ncsc1-c1ccc(CNC(=O)[C@@H]2C[C@@H](O)CN2C(=O)[C@@H](NC(=O)CCCCCCC(=O)N2CCN(c3ccc(C(=O)Nc4n[nH]c5ccc(Cc6cc(F)cc(F)c6)cc45)c(NC4CCOCC4)c3)CC2)C(C)(C)C)cc1 [CPD-033, (2S,4R)-1-((S)-2-(8-(4-(4-((5-(3,5-Difluorobenzyl)-1H-indazol-3-yl)carbamoyl)-3-((tetrahydro-2H-pyran-4-yl)amino)phenyl)piperazin-1-yl)-8-oxooctanamido)-3,3-dimethylbutanoyl)-4-hydroxy-N-(4-(4-methylthiazol-5-yl)benzyl)pyrrolidine-2-carboxamide] | > 80 |  |
| Cc1ncsc1-c1ccc(CNC(=O)[C@@H]2C[C@@H](O)CN2C(=O)[C@@H](NC(=O)CCCCCCCCCC(=O)N2CCN(c3ccc(C(=O)Nc4n[nH]c5ccc(Cc6cc(F)cc(F)c6)cc45)c(NC4CCOCC4)c3)CC2)C(C)(C)C)cc1 [CPD-035, (25,4R)-1-((S)-2-(11-(4-(4-((5-(3,5-Difluorobenzyl)-1H-indazol-3-yl)carbamoyl)-3-((tetrahydro-2H-pyran-4-yl)amino)phenyl)piperazin-1-yl)-11-oxoundecanamido)-3,3-dimethylbutanoyl)-4-hydroxy-N-(4-(4-methylthiazol-5-yl)benzyl)pyrrolidine-2-carboxamide] | < 50 |  |

The remaining lines, values ahead:

| percent degradation of TPM3-TRKA protein at 0.01 µM [%] | TPM3-TRKA protein levels (KM12 cells, 100 nM, indicated incubation time, Western blot (FIG. 2)) | SMILES |
| --- | --- | --- |
| > 80 |  | O=C1CCC(N2C(=O)c3cccc(NCCOCCOCCOCCOCCOCCC(=O)N4CCN(c5cccc(-c6cnc7ccc(N8CCC[C@@H]8c8cccc(F)c8)nn67)n5)CC4)c3C2=O)C(=O)N1 (stereo partly drawn) [CPD-025, 2-(2,6-Dioxopiperidin-3-yl)-4-((18-(4-(6-(6-((R)-2-(3-fluorophenyl)pyrrolidin-1-yl)imidazo[1,2-b]pyridazin-3-yl)pyridin-2-yl)piperazin-1-yl)-18-oxo-3,6,9,12,15-pentaoxaoctadecyl)amino) isoindoline-1,3-dione] |
| 50 to 80 |  | O=C1CCC(N2C(=O)c3cccc(NCCC(=O)N4CCN(c5cccc(-c6cnc7ccc(N8CCC[C@@H]8c8cccc(F)c8)nn67)n5)CC4)c3C2=O)C(=O)N1 (stereo partly drawn) [CPD-026, 2-(2,6-Dioxopiperidin-3-yl)-4-((3-(4-(6-(6-((R)-2-(3-fluorophenyl)pyrrolidin-1-yl)imidazo[1,2-b]pyridazin-3-yl)pyridin-2-yl)piperazin-1-yl)-3-oxopropyl)amino) isoindoline-1,3-dione] |
| > 80 |  | O=C1CCC(N2C(=O)c3cccc(NCCOCCOCCC(=O)N4CCN(c5cccc(-c6cnc7ccc(N8CCC[C@@H]8c8cccc(F)c8)nn67)n5)CC4)c3C2=O)C(=O)N1 (stereo partly drawn) [CPD-028, 2-(2,6-Dioxopiperidin-3-yl)-4-((2-(2-(3-(4-(6-(6-((R)-2-(3-fluorophenyl)pyrrolidin-1-yl)imidazo[1,2-b]pyridazin-3-yl)pyridin-2-yl)piperazin-1-yl)-3-oxopropoxy)ethoxy)ethyl)amino) isoindoline-1,3-dione] |
| > 80 |  | O=C1CCC(N2C(=O)c3cccc(NCCOCCOCCOCCOCCC(=O)N4CCN(c5ccc(C(=O)Nc6n[nH]c7ccc(Cc8cc(F)cc(F)c8)cc67)c(NC6CCOCC6)c5)CC4)c3C2=O)C(=O)N1 (centres unmarked) [CPD-031, N-(5-(3,5-Difluorobenzyl)-1H-indazol-3-yl)-4-(4-(1-((2-(2,6-dioxopiperidin-3-yl)-1,3-dioxoisoindolin-4-yl)amino)-3,6,9,12-tetraoxapentadecan-15-oyl)piperazin-1˜yl)-2-((tetrahydro-2H-pyran-4-yl)amino)benzamide] |
| < 50 |  | Cc1ncsc1-c1ccc(CNC(=O)[C@@H]2C[C@@H](O)CN2C(=O)[C@@H](NC(=O)CCCCCCCCC(=O)N2CCN(c3ccc(C(=O)Nc4n[nH]c5ccc(Cc6cc(F)cc(F)c6)cc45)c(NC4CCOCC4)c3)CC2)C(C)(C)C)cc1 [CPD-034, (28,4R)-1-((S)-2-(10-(4-(4-((5-(3,5-Difluorobenzyl)-1H-indazol-3-yl)carbamoyl)-3-((tetrahydro-2H-pyran-4-yl)amino)phenyl)piperazin-1-yl)-10-oxodecanamido)-3,3-dimethylbutanoyl)-4-hydroxy-N-(4-(4-methylthiazol-5-yl)benzyl)pyrrolidine-2-carboxamide] |
